Test results: patent US20090062369A1, “USE OF SECRETORY PHOSPHOLIPASE A2 (SPLA2) INHIBITORS TO DECREASE SPLA2 LEVELS” (priority 2007, published 2009)

System: serum sPLA2
Assay: Effect of twice-a-day oral A-002 on serum sPLA2 levels in subjects with stable coronary artery disease (Example 6)
Format: in vivo, human
Procedure: The protocol for preparing standard curve, test, and quality control samples for use in the assay disclosed herein is set forth in Example 5. Samples are prepared according to this protocol, then loaded in duplicate onto a plate (Cayman catalog no. 485002 or equivalent) that has been pre-coated with a monoclonal sPLA2 antibody (“capture antibody”) that specifically binds sPLA2. In certain embodiments, the capture antibody may interact with a specific form of sPLA2, such as for example sPLA2 type IIA.
sPLA2 acetylcholinesterase:Fab′ conjugate (AChE:Fab′) (“conjugate”) (Cayman catalog no. 485000 or equivalent) is reconstituted in EIA buffer (Cayman catalog no. 400060 or equivalent). Cayman EIA buffer is 1M phosphate, pH 7.0, 1% BSA, 4M NaCl, 10 mM EDTA, and 0.1% sodium azide. Reconstituted conjugate is added to each well of the plate. The conjugate binds a different sPLA2 epitope than the capture antibody, allowing the capture antibody and the conjugate to form a “sandwich” that is immobilized on the plate. Excess reagents are washed away, and the plate is covered and incubated overnight at 2-8° C.
Prior to development, the wells are washed five to six times with wash buffer (Cayman catalog no. 400062 or equivalent). To develop the plate, Ellman's Reagent (Cayman catalog no. 400050 or equivalent) is reconstituted in water and added to each well according to manufacturer instructions. The reconstituted Ellman's Reagent must be used the same day it is prepared because it is unstable. Ellman's Reagent contains an AChE substrate. Specifically, Ellman's Reagent contains acetylthiocholine and 5,5′-dithio-bis-(2-nitrobenzoic acid). Hydrolysis of acetylthiocholine by acetylcholinesterase produces thiocholine, which reacts with 5,5′-dithio-bis-(2-nitrobenzoic acid) to produce 5-thio-2-nitrobenzoic acid. 5-thio-2-nitrobenzoic acid has a strong absorbance at 412 nm. The intensity of absorbance at this wavelength is directly proportional to the concentration of bound conjugate, which is in turn is directly proportional to the concentration of sPLA2 present (Absorbance a [AChE:Fab′ conjugate] α [sPLA2]). During the development step, the plate is shaken, preferably in the dark. In certain embodiments the development time for the assay is 0.5 to 3 hours, preferably 1 to 1.5 hours. At the end of the development period, the high sPLA2 standards should have greater yellow color development than the zero standards. Absorbance of each well is measured at 400-420 nm using a micro-well plate reader. In certain embodiments, absorbance is measured at about 405 nm.
Absorbance readings for duplicate wells are averaged, and the relative standard deviation and % CV are calculated. Standard curve data are used to generate a four parameter curve, and quality control and test samples are measured against the appropriate standard curve (i.e., the standard curve with the same serum content). In order for a test to be considered valid, variation between duplicate wells should be no more than about 25%, and negative controls (blanks) for each standard curve should have a mean absorbance of less than about 0.3.
The method disclosed herein for measuring sPLA2 levels in serum was utilized to determine the effect of administering certain sPLA2 inhibitors on sPLA2 levels in 84 human subjects. The subjects included 24 subjects with diabetes, 32 subjects with metabolic syndrome, and 75 subjects receiving statin treatment. Subjects were administered the sPLA2 inhibitor A-002, a prodrug form of A-001, twice a day at varying dosages from 50 to 500 mg. The structures of A-002and A-001 are set forth below. At two weeks and four weeks after the first administration, sPLA2 levels were measured and compared to pre-administration baseline levels.
84 subjects with stable coronary artery disease were randomized to receive placebo or A-002 via oral administration twice a day over a four week administration period. […]

[1] = 500 mg, non-diabetes subgroup of ITT population
[2] = 500 mg, statin subgroup of ITT population
[3] = A-002 (50 mg), ITT subjects exhibiting at least 3 out of 5 metabolic syndrome criteria
[4] = A-002 (50 mg), non-statin subgroup of ITT population
[5] = A-002 (100 mg), ITT subjects exhibiting at least 3 out of 5 metabolic syndrome criteria
[6] = A-002 (100 mg), non-statin subgroup of ITT population
[7] = A-002 (250 mg), ITT subjects exhibiting at least 3 out of 5 metabolic syndrome criteria
[8] = A-002 (250 mg), non-statin subgroup of ITT population
[9] = A-002 (500 mg), ITT subjects exhibiting at least 3 out of 5 metabolic syndrome criteria

CCc1c(C(=O)C(N)=O)c2c(OCC(=O)OC)cccc2n1Cc1ccccc1 [A-002, [[3-(2-Amino-1,2-dioxoethyl)-2-ethyl-1-(phenylmethyl)-1H-indol-4-yl]oxy]acetic acid methyl ester]
sPLA2 level, Week 2, Range [1]: 0.05 to 0.50 ng/mL | sPLA2 level, Week 4, Mean [1]: 0.13 ng/mL | sPLA2 level, Week 4, Median [1]: 0.05 ng/mL | sPLA2 level, Week 4, Range [1]: 0.05 to 0.40 ng/mL | sPLA2 Change from baseline at week 2, Mean [2]: -2.93 ng/mL | sPLA2 Change from baseline at week 2, Median [2]: -3.30 ng/mL | sPLA2 Change from baseline at week 2, Range [2]: -4.80 to -0.55 ng/mL | sPLA2 Change from baseline at week 4, Mean [2]: -2.99 ng/mL | sPLA2 Change from baseline at week 4, Median [2]: -3.50 ng/mL | sPLA2 Change from baseline at week 4, Range [2]: -4.80 to -0.55 ng/mL | sPLA2 level, Baseline, Mean [2]: 3.05 ng/mL | sPLA2 level, Baseline, Median [2]: 3.00 ng/mL | sPLA2 level, Baseline, Range [2]: 0.60 to 5.40 ng/mL | sPLA2 level, Week 2, Mean [2]: 0.20 ng/mL | sPLA2 level, Week 2, Median [2]: 0.10 ng/mL | sPLA2 level, Week 2, Range [2]: 0.05 to 0.60 ng/mL | sPLA2 level, Week 4, Mean [2]: 0.14 ng/mL | sPLA2 level, Week 4, Median [2]: 0.05 ng/mL | sPLA2 level, Week 4, Range [2]: 0.05 to 0.60 ng/mL | sPLA2 level, Baseline, Mean [3]: 3.47 ng/mL | sPLA2 level, Baseline, Median [3]: 2.70 ng/mL | sPLA2 level, Baseline, Range [3]: 0.80 to 8.80 ng/mL | sPLA2 level, Change from baseline at week 2, Mean [3]: -2.89 ng/mL | sPLA2 level, Change from baseline at week 2, Median [3]: -2.50 ng/mL | sPLA2 level, Change from baseline at week 2, Range [3]: -5.30 to -0.60 ng/mL | sPLA2 level, Change from baseline at week 4, Mean [3]: -2.76 ng/mL | sPLA2 level, Change from baseline at week 4, Median [3]: -2.15 ng/mL | sPLA2 level, Change from baseline at week 4, Range [3]: -6.40 to -0.60 ng/mL | sPLA2 level, Week 2, Mean [3]: 0.96 ng/mL | sPLA2 level, Week 2, Median [3]: 0.30 ng/mL | sPLA2 level, Week 2, Range [3]: 0.20 to 4.00 ng/mL | sPLA2 level, Week 4, Mean [3]: 0.81 ng/mL | sPLA2 level, Week 4, Median [3]: 0.65 ng/mL | sPLA2 level, Week 4, Range [3]: 0.10 to 2.40 ng/mL | sPLA2 level, Baseline, Mean [4]: 1.80 ng/mL | sPLA2 level, Baseline, Median [4]: 1.80 ng/mL | sPLA2 level, Baseline, Range [4]: 1.80 to 1.80 ng/ml | sPLA2 level, Baseline, Mean [5]: 2.97 ng/mL | sPLA2 level, Baseline, Median [5]: 2.20 ng/mL | sPLA2 level, Baseline, Range [5]: 0.05 to 6.00 ng/mL | sPLA2 level, Change from baseline at week 2, Mean [5]: -1.01 ng/mL | sPLA2 level, Change from baseline at week 2, Median [5]: -1.80 ng/mL | sPLA2 level, Change from baseline at week 2, Range [5]: −3.30 to +2.85 ng/ml | sPLA2 level, Change from baseline at week 4, Mean [5]: -2.78 ng/mL | sPLA2 level, Change from baseline at week 4, Median [5]: -2.70 ng/mL | sPLA2 level, Change from baseline at week 4, Range [5]: -5.70 to 0.00 ng/mL | sPLA2 level, Week 2, Mean [5]: 1.20 ng/mL | sPLA2 level, Week 2, Median [5]: 0.80 ng/mL | sPLA2 level, Week 2, Range [5]: 0.30 to 2.90 ng/mL | sPLA2 level, Week 4, Mean [5]: 0.41 ng/mL | sPLA2 level, Week 4, Median [5]: 0.30 ng/mL | sPLA2 level, Week 4, Range [5]: 0.05 to 1.00 ng/mL | sPLA2 level, Baseline, Mean [6]: 3.85 ng/mL | sPLA2 level, Baseline, Median [6]: 3.85 ng/mL | sPLA2 level, Baseline, Range [6]: 2.80 to 4.90 ng/mL | sPLA2 level, Change from baseline at week 2, Mean [6]: -1.90 ng/mL | sPLA2 level, Change from baseline at week 2, Median [6]: -1.90 ng/mL | sPLA2 level, Change from baseline at week 2, Range [6]: −1.90 to −1.90 ng/ml | sPLA2 level, Change from baseline at week 4, Mean [6]: -3.05 ng/mL | sPLA2 level, Change from baseline at week 4, Median [6]: -3.05 ng/mL | sPLA2 level, Change from baseline at week 4, Range [6]: -4.40 to -1.70 ng/mL | sPLA2 level, Week 2, Mean [6]: 0.90 ng/mL | sPLA2 level, Week 2, Median [6]: 0.90 ng/mL | sPLA2 level, Week 2, Range [6]: 0.90 to 0.90 ng/ml | sPLA2 level, Week 4, Mean [6]: 0.80 ng/mL | sPLA2 level, Week 4, Median [6]: 0.80 ng/mL | sPLA2 level, Week 4, Range [6]: 0.50 to 1.10 ng/mL | sPLA2 level, Baseline, Mean [7]: 2.90 ng/mL | sPLA2 level, Baseline, Median [7]: 2.20 ng/mL | sPLA2 level, Baseline, Range [7]: 1.80 to 4.70 ng/mL | sPLA2 level, Change from baseline at week 2, Mean [7]: -1.65 ng/mL | sPLA2 level, Change from baseline at week 2, Median [7]: -1.65 ng/mL | sPLA2 level, Change from baseline at week 2, Range [7]: -1.90 to -1.40 ng/mL | sPLA2 level, Change from baseline at week 4, Mean [7]: -1.75 ng/mL | sPLA2 level, Change from baseline at week 4, Median [7]: -1.75 ng/mL | sPLA2 level, Change from baseline at week 4, Range [7]: -2.10 to -1.40 ng/mL | sPLA2 level, Week 2, Mean [7]: 0.33 ng/mL | sPLA2 level, Week 2, Median [7]: 0.30 ng/mL | sPLA2 level, Week 2, Range [7]: 0.30 to 0.40 ng/mL | sPLA2 level, Week 4, Mean [7]: 0.27 ng/mL | sPLA2 level, Week 4, Median [7]: 0.30 ng/mL | sPLA2 level, Week 4, Range [7]: 0.10 to 0.40 ng/mL | sPLA2 level, Baseline, Mean [8]: 3.40 ng/mL | sPLA2 level, Baseline, Median [8]: 3.40 ng/mL | sPLA2 level, Baseline, Range [8]: 3.40 to 3.40 ng/ml | sPLA2 level, Change from baseline at week 2, Mean [8]: -2.10 ng/mL | sPLA2 level, Change from baseline at week 2, Median [8]: -2.10 ng/mL | sPLA2 level, Change from baseline at week 2, Range [8]: −2.10 to −2.10 ng/ml | sPLA2 level, Change from baseline at week 4, Mean [8]: -2.20 ng/mL | sPLA2 level, Change from baseline at week 4, Median [8]: -2.20 ng/mL | sPLA2 level, Change from baseline at week 4, Range [8]: −2.20 to −2.20 ng/ml | sPLA2 level, Week 2, Mean [8]: 1.30 ng/mL | sPLA2 level, Week 2, Median [8]: 1.30 ng/mL | sPLA2 level, Week 2, Range [8]: 1.30 to 1.30 ng/ml | sPLA2 level, Week 4, Mean [8]: 1.20 ng/mL | sPLA2 level, Week 4, Median [8]: 1.20 ng/mL | sPLA2 level, Week 4, Range [8]: 1.20 to 1.20 ng/ml | sPLA2 level, Baseline, Mean [9]: 3.05 ng/mL | sPLA2 level, Baseline, Median [9]: 3.40 ng/mL | sPLA2 level, Baseline, Range [9]: 1.20 to 4.40 ng/mL | sPLA2 level, Change from baseline at week 2, Mean [9]: -2.94 ng/mL | sPLA2 level, Change from baseline at week 2, Median [9]: -3.50 ng/mL | sPLA2 level, Change from baseline at week 2, Range [9]: -4.00 to -1.15 ng/mL | sPLA2 level, Change from baseline at week 4, Mean [9]: -3.04 ng/mL | sPLA2 level, Change from baseline at week 4, Median [9]: -3.70 ng/mL | sPLA2 level, Change from baseline at week 4, Range [9]: -4.35 to -1.15 ng/mL | sPLA2 level, Week 2, Mean [9]: 0.16 ng/mL | sPLA2 level, Week 2, Median [9]: 0.05 ng/mL | sPLA2 level, Week 2, Range [9]: 0.05 to 0.40 ng/mL | sPLA2 level, Week 4, Mean [9]: 0.06 ng/mL | sPLA2 level, Week 4, Median [9]: 0.05 ng/mL
